Laboratory results published in BindingDB's records for patent WO2022021841 (Sichuan University, 2022).

Legend:
[1] = biological target: T1, Replicase polyprotein 1ab (Severe acute respiratory syndrome coronavirus 2, UniProt P0DTD1); assay: SARS-CoV-2 in Vero E6
[2] = biological target: T1, Replicase polyprotein 1ab; assay: SARS-CoV-2 Coronavirus 3C Protease FRET Assay
Method: IC50 values were calculated by fitting a curve of Vmax to experimental values with the controls (DMSO) as the top and bottom limits of the curve. […] GraphPad Prism is the analysis tool for all measurements.

`COc1ccc(OCC(=O)N2C[C@@H]3CCC[C@@H]3C2C(=O)N[C@H](C=O)C[C@@H]2CCNC2=O)cc1` (stereo partly specified) [WO2022021841, 17] gave an EC50 [1] of 24700 nM and a Ki [2] of 20 nM.
For `O=C[C@H](C[C@@H]1CCNC1=O)NC(=O)C1[C@H]2CCC[C@H]2CN1C(=O)CCc1cc(F)cc(F)c1` (stereo partly specified) [WO2022021841, 19], the EC50 [1] was 5630 nM and the Ki [2] was 11 nM.
`COc1ccc(OCC(=O)N2C[C@H]3[C@@H](C2C(=O)N[C@H](C=O)C[C@@H]2CCNC2=O)C3(C)C)cc1OC` (stereo partly specified) [WO2022021841, 20] was tested, and the EC50 [1] was 1730 nM and the Ki [2] was 12 nM.
Work on `Cc1cc(Cl)ccc1OCC(=O)N1C[C@@H]2CCC[C@H]2C1C(=O)N[C@H](C=O)C[C@@H]1CCNC1=O` (stereo partly specified) [WO2022021841, 24] yielded an EC50 [1] of 1500 nM and a Ki [2] of 22 nM.
In the case of `O=C[C@H](C[C@@H]1CCNC1=O)NC(=O)C1[C@@H]2CCC[C@H]2CN1C(=O)COc1ccc(Cl)cc1` (stereo partly specified) [WO2022021841, 26], the EC50 [1] is reported as 670 nM and the Ki [2] is reported as 9 nM.
Work on `CC1(C)[C@@H]2C(C(=O)N[C@H](C=O)C[C@@H]3CCNC3=O)N(C(=O)COc3ccc4ccccc4c3)C[C@@H]21` (stereo partly specified) [WO2022021841, 27] yielded an EC50 [1] of 1270 nM and a Ki [2] of 54 nM.
For `COc1ccc(OCC(=O)N2C[C@H]3[C@@H](C2C(=O)N[C@H](C=O)C[C@@H]2CCNC2=O)C3(C)C)cc1F` (stereo partly specified) [WO2022021841, 28], the EC50 [1] was 4680 nM and the Ki [2] was 47 nM.
`CC1(C)[C@@H]2C(C(=O)N[C@H](C=O)C[C@@H]3CCNC3=O)N(C(=O)COc3ccc(Cl)c(Br)c3)C[C@@H]21` (stereo partly specified) [WO2022021841, 30] gave an EC50 [1] of 1150 nM and a Ki [2] of 14 nM.
With `CC1(C)[C@@H]2C(C(=O)N[C@H](C=O)C[C@@H]3CCNC3=O)N(C(=O)COc3ccc(Br)cc3Cl)C[C@@H]21` (stereo partly specified) [WO2022021841, 31] the EC50 [1] was 1180 nM and the Ki [2] was 15 nM.
Compound `CC1(C)[C@@H]2C(C(=O)N[C@H](C=O)C[C@@H]3CCNC3=O)N(C(=O)COc3ccc(F)c(F)c3)C[C@@H]21` (stereo partly specified) [WO2022021841, 33] has an EC50 [1] of 5570 nM and a Ki [2] of 13 nM.
Work on `CC1(C)[C@@H]2C(C(=O)N[C@H](C=O)C[C@@H]3CCNC3=O)N(C(=O)COc3cc(F)cc(F)c3)C[C@@H]21` (stereo partly specified) [WO2022021841, 34] yielded an EC50 [1] of 1540 nM and a Ki [2] of 20 nM.
With `CC1(C)[C@@H]2C(C(=O)N[C@H](C=O)C[C@@H]3CCNC3=O)N(C(=O)CCc3cccc(F)c3)C[C@@H]21` (stereo partly specified) [WO2022021841, 36] the EC50 [1] was 2230 nM and the Ki [2] was 16 nM.
`O=C[C@H](C[C@@H]1CCNC1=O)NC(=O)C1[C@@H]2CCC[C@H]2CN1C(=O)CCc1cccc(F)c1` (stereo partly specified) [WO2022021841, 37] gave an EC50 [1] of 2970 nM and a Ki [2] of 7 nM.
In the case of `CC1(C)[C@@H]2C(C(=O)N[C@H](C=O)C[C@@H]3CCNC3=O)N(C(=O)COc3ccc(Cl)cc3)C[C@@H]21` (stereo partly specified) [WO2022021841, 43], the EC50 [1] is reported as 530 nM and the Ki [2] is reported as 9 nM.
Compound `CC1(C)[C@@H]2C(C(=O)N[C@H](C=O)C[C@@H]3CCNC3=O)N(C(=O)COc3ccc(Cl)cc3Cl)C[C@@H]21` (stereo partly specified) [WO2022021841, 44] has an EC50 [1] of 660 nM and a Ki [2] of 10 nM.
In the case of `O=C[C@H](C[C@@H]1CCNC1=O)NC(=O)C1[C@@H]2CCC[C@H]2CN1C(=O)COc1ccc(Cl)c(Cl)c1` (stereo partly specified) [WO2022021841, 45], the EC50 [1] is reported as 830 nM and the Ki [2] is reported as 19 nM.
Work on `CC(C)(OCc1ccc(F)cc1F)C(=O)N1C[C@@H]2CCC[C@H]2C1C(=O)N[C@H](C=O)C[C@@H]1CCNC1=O` (stereo partly specified) [WO2022021841, 62] yielded a Ki [2] of 40 nM.
Work on `CC(C)(CCc1ccc(Cl)c(F)c1)C(=O)N1C[C@@H]2CCC[C@H]2C1C(=O)N[C@H](C=O)C[C@@H]1CCNC1=O` (stereo partly specified) [WO2022021841, 63] yielded a Ki [2] of 26 nM.
`O=C[C@H](C[C@@H]1CCNC1=O)NC(=O)C1[C@@H]2CCC[C@H]2CN1C(=O)CCc1cc(Cl)cc(Cl)c1` (stereo partly specified) [WO2022021841, 64] showed a Ki [2] of 33 nM.
`O=C[C@H](C[C@@H]1CCNC1=O)NC(=O)C1[C@@H]2CCC[C@H]2CN1C(=O)CCc1ccc(Cl)cc1` (stereo partly specified) [WO2022021841, 65] showed a Ki [2] of 44 nM.
`O=C[C@H](C[C@@H]1CCNC1=O)NC(=O)C1[C@@H]2CCC[C@H]2CN1C(=O)CCc1cccc(Cl)c1` (stereo partly specified) [WO2022021841, 66] gave a Ki [2] of 36 nM.
Compound `O=C[C@H](C[C@@H]1CCNC1=O)NC(=O)C1[C@@H]2CCC[C@H]2CN1C(=O)CCc1ccc(Cl)cc1Cl` (stereo partly specified) [WO2022021841, 67] has a Ki [2] of 40 nM.
`O=C[C@H](C[C@@H]1CCNC1=O)NC(=O)C1[C@@H]2CCC[C@H]2CN1C(=O)CCc1ccc(Cl)c(Cl)c1` (stereo partly specified) [WO2022021841, 68] showed a Ki [2] of 35 nM.
`CC(Oc1ccc(Cl)cc1Cl)C(=O)N1C[C@@H]2CCC[C@H]2C1C(=O)N[C@H](C=O)C[C@@H]1CCNC1=O` (stereo partly specified) [WO2022021841, 69] was tested, and the Ki [2] was 107 nM.
For `O=C[C@H](C[C@@H]1CCNC1=O)NC(=O)C1[C@@H]2CCC[C@H]2CN1C(=O)/C=C/c1ccc(Cl)cc1Cl` (stereo partly specified) [WO2022021841, 70], the Ki [2] was 81 nM.
`O=C[C@H](C[C@@H]1CCNC1=O)NC(=O)C1[C@@H]2CCC[C@H]2CN1C(=O)C(F)(F)Oc1ccc(Cl)cc1Cl` (stereo partly specified) [WO2022021841, 71] gave a Ki [2] of 40 nM.
Compound `O=C[C@H](C[C@@H]1CCNC1=O)NC(=O)C1[C@@H]2CCC[C@H]2CN1C(=O)C(F)Oc1ccc(Cl)cc1Cl` (stereo partly specified) [WO2022021841, 72] has a Ki [2] of 31 nM.
For `O=C[C@H](C[C@@H]1CCNC1=O)NC(=O)C1[C@@H]2CCC[C@H]2CN1C(=O)CCc1cccc(O)c1` (stereo partly specified) [WO2022021841, 73], the Ki [2] was 31 nM.
With `O=C[C@H](C[C@@H]1CCNC1=O)NC(=O)C1[C@@H]2CCC[C@H]2CN1C(=O)CCc1ccc(O)cc1` (stereo partly specified) [WO2022021841, 74] the Ki [2] was 51 nM.
`O=C[C@H](C[C@@H]1CCNC1=O)NC(=O)C1[C@@H]2CCC[C@H]2CN1C(=O)CCc1ccc(O)c(O)c1` (stereo partly specified) [WO2022021841, 75] showed a Ki [2] of 41 nM.
With `COc1ccc(CCC(=O)N2C[C@@H]3CCC[C@H]3C2C(=O)N[C@H](C=O)C[C@@H]2CCNC2=O)cc1` (stereo partly specified) [WO2022021841, 76] the Ki [2] was 51 nM.
With `COc1ccc(CCC(=O)N2C[C@@H]3CCC[C@H]3C2C(=O)N[C@H](C=O)C[C@@H]2CCNC2=O)c(Cl)c1` (stereo partly specified) [WO2022021841, 77] the Ki [2] was 56 nM.
`COc1cccc(CCC(=O)N2C[C@@H]3CCC[C@H]3C2C(=O)N[C@H](C=O)C[C@@H]2CCNC2=O)c1` (stereo partly specified) [WO2022021841, 78] was tested, and the Ki [2] was 68 nM.
Compound `CC1CNC(=O)[C@@H]1C[C@H](NC(=O)C1[C@H]2[C@H](CN1C(=O)COc1ccc(OC(F)(F)F)cc1)C2(C)C)C(=O)CF` (stereo partly specified) [WO2022021841, 79] has a Ki [2] of 65 nM.
`CC1CNC(=O)[C@@H]1C[C@H](NC(=O)C1[C@@H]2CCC[C@H]2CN1C(=O)COc1ccc(OC(F)(F)F)cc1)C(=O)CF` (stereo partly specified) [WO2022021841, 80] showed a Ki [2] of 23 nM.
